Values after ≈ are worked out from the molar mass of the structure shown. Like-named read-outs stand apart in the source and are kept apart here.
What was measured:
[1] = Solubility; format: physicochemical; settings: aqueous buffer; in PBS
[2] = tested on: N2A-APP-Swe cells; assay: Neurotoxicity of macrophage-conditioned medium (MTS assay); format: cell-based, mouse
Protocol: FIGS. 4A and 4B present data from experiments in which human macrophages differentiated from THP-1 monocytic cell lines and mouse J774A.1 macrophages were incubated with fibrillar Aβ in the absence or presence of compound (2 or 5 μM) for 24 h. Conditioned medium was harvested and the remaining Aβ was quantified by Aβ ELISA. The collected medium (FIGS. 4C-4D) was added to N2A-APP-Swe cells (mouse Neuro-2A neuroblastoma cells stably expressing Swedish APP695) and incubated for 24 h. Neurotoxicity was quantified by an MTS Assay.
Mouse J774A.1 macrophages and human macrophages that were differentiated from THP-1 monocytic cell lines were treated with fibrillar Aβ42 in the absence or presence of SRI-011382 or its derivative compounds (2, 5, or 10 μM) for 24 h. Conditioned medium was harvested and the remaining Aβ42 that was not phagocytosed by macrophages was quantified by Aβ42 ELISA kit (Invitrogen). Data was normalized to control medium containing the input amount of Aβ42. Neurotoxicity induced by fibrillar Aβ42 in the conditioned medium was then assessed by incubating Neuro-2a neuroblastoma cells with conditioned medium for 24 h followed by MTS-based viability assay. Data was normalized to control cells without fibrillar Aβ42 treatment.

[3] = Single-dose pharmacokinetics in female FVB mice; format: in vivo, mouse; settings: for Kp at 4 h: read-out: Brain to Plasma concentration ratio at 4 h
Protocol: Pharmacokinetics of SRI-011381 after single intravenous, intraperitoneal, or oral administration in female FVB mice: The objective of this study was to determine the single-dose pharmacokinetics of SRI-011381 in plasma and brain. Female FVB/NJ mice were administered the test article by intravenous (iv, 10 mg/kg), intraperitoneal (ip, 30 mg/kg), and oral gavage (po, 50 mg/kg) dose routes. The compound was formulated in 10% DMSO:15% Solutol:75% sterile water. Plasma and brain were collected at various time points up to 24 h and analyzed by LC/MS for determination of SRI-011381 levels. FIGS. 7A and 7B summarize SRI-011381 levels in plasma and brain, and Tables 4 and 5 list the results of the pharmacokinetic analysis.

[4] = tested on: APP751Lon,Swe transgenic mice; assay: Efficacy in APP751Lon,Swe transgenic mouse model; format: in vivo; settings: for Y-maze working memory (spontaneous alternations): po 3 times per week
Description: Transgenic mouse models over-producing human APP-containing mutations found in families with autosomal dominant AD reproduce important aspects of AD, including amyloid plaques, neurodegeneration, and cognitive deficits. Transgenic mice which overexpress human APP751^V717I, K670M/N671L (aka London and Swedish mutations) in neurons under control of a Thy1.2 promoter, specifically Line 41 generated according to Rockenstein et al., (2001) J. Neurosci. Res. 66: 573-582, incorporated herein by reference in its entirety, develop amyloid pathology, neurodegeneration, and cognitive deficits (Rockenstein et al. 2001). These mice (short APP751^Lon,Swe) have been studied by multiple laboratories (Pickford et al. (2008) J. Clin. Invest. doi:10.1172/JCI33585; Knowles et al., (2009) J. Neuroscience 29: 10627-10637) and have been used as a model for drug development.
Compound SRI-011381 was dissolved in a vehicle containing 15% solutol and 85% water. The formulated compound was administered orally to APP751^Lon,Swe transgenic mice or littermate non-transgenic controls (male, 6.5-7.5 months of age) at 0 (vehicle only), 10, 30 mg/kg of body weight 3 times per week for 10 weeks (n=7-11 mice per group). Behavioral studies started at this point. Oral gavage of the compound continued throughout the course of the studies until the mice were sacrificed 17 weeks after treatment had been initiated (thus mice were treated for roughly 4 months total before they were sacrificed). Plasma samples were collected for future proteomic assays. One hemibrain was fixed in 4% PFA for 48 h and kept in 2% PFA at 4° C. for neuropathologcial analysis. The other hemibrain was snap frozen. Both the serum and frozen brain samples were placed into −80° C. freezer for long-term storage.
To determine the effects of SRI-011381 (381) treatment on AD-like pathology brains from APP751^Lon,Swe transgenic and non-transgenic littermate control mice treated with vehicle, 10 mg/kg, or 30 mg/kg of compound were sectioned into 40 μm free-floating sections with a vibratome. Brain sections were stained with antibodies against Aβ, phosphorylated tau (PHF1), calbindin, microtubule associated protein2 (MAP2), synaptophysin (SY38), NeuN, and Iba1. In addition, hippocampus and neocortex from one hemibrain from APP751^Lon,Swe mice were homogenized with guanidine, and levels of Aβ1-42 and Aƒβ1-x were measured by ELISA.

[5] = female, FVB/NJ, mouse, brain, ip, 30 mg/kg
[6] = female, FVB/NJ, mouse, brain, iv, 10 mg/kg
[7] = female, FVB/NJ, mouse, brain, po, 50 mg/kg
[8] = female, FVB/NJ, mouse, plasma, ip, 30 mg/kg
[9] = female, FVB/NJ, mouse, plasma, iv, 10 mg/kg
[10] = female, FVB/NJ, mouse, plasma, po, 50 mg/kg

## O=C(NC1CCCCC1)N(Cc1ccccc1)CC1CCNCC1 [SRI-011381, 1-Benzyl-3-cyclohexyl-1-(piperidin-4-ylmethyl)urea]
[1]
  solubility: 5.2 mg/mL (≈ 15.8 mM)
[2]; medium conditioned by J774A.1 macrophages
  fibrillar Aβ42-induced neurotoxicity: protect human neuronal cells from fibrillar Aβ42-induced neurotoxicity
[2]; medium conditioned by THP-1 macrophages
  fibrillar Aβ42-induced neurotoxicity: protect human neuronal cells from fibrillar Aβ42-induced neurotoxicity
[3]; female, FVB/NJ, mouse, brain, intraperitoneal, time points after about 0.5 h (iv) and about 1.5 h (po and ip), read-out: brain-to-plasma concentration ratio
  Kp: > 0.5
[3]; [5]
  Cmax: 0.348 ± 0.033 µg/mL
  Tmax: 15 min
  Kp at 4 h: 1.65
[3]; [6]
  Cmax: 0.231 ± 0.106 µg/mL
  Tmax: 15 min
  Kp at 4 h: 12.5
[3]; [7]
  Cmax: 0.157 ± 0.016 µg/mL
  Tmax: 60 min
[3]; female, FVB/NJ, mouse, brain, po, 50 mg/kg, p.o.
  Kp at 4 h: 0.89
[3]; female, FVB/NJ, mouse, brain/plasma, ip, 30 mg/kg, values at the brain T, read-out: Brain-to-plasma ratio
  Kp: 0.07
[3]; female, FVB/NJ, mouse, brain/plasma, iv, 10 mg/kg, values at the brain T, read-out: Brain-to-plasma ratio
  Kp: 0.28
[3]; female, FVB/NJ, mouse, brain/plasma, po, 50 mg/kg, values at the brain T, read-out: Brain-to-plasma ratio
  Kp: 0.19
[3]; female, FVB/NJ, mouse, plasma, intraperitoneal, extravascular estimates (ip and po) based on F, read-out: Cl (converted)
  clearance: ~9 L/h/kg
[3]; female, FVB/NJ, mouse, plasma, intraperitoneal, extravascular estimates (ip and po) based on F, read-out: apparent volume of distribution V
  Vd: 8 to 13 L/kg
[3]; female, FVB/NJ, mouse, plasma, intravenous, intraperitoneal, oral, read-out: elimination half-life
  half-life: < 60 min
[3]; [8]
  AUC(0-inf): 4.16 µg·h/mL
  AUC(0-t): 4.11 ± 0.214 µg·h/mL
  Cmax: 6.81 ± 0.72 µg/mL
  Tmax: 4.98 min
[3]; female, FVB/NJ, mouse, plasma, ip, 30 mg/kg, read-out: t1/2 (converted)
  half-life: 35.4 min
[3]; [9]
  AUC(0-inf): 1.08 µg·h/mL
  AUC(0-t): 1.07 ± 0.129 µg·h/mL
  Cmax: 1.17 ± 0.415 µg/mL
  Tmax: 4.98 min
[3]; female, FVB/NJ, mouse, plasma, iv, 10 mg/kg, read-out: CI (clearance) (converted)
  clearance: 9.26 L/h/kg
[3]; female, FVB/NJ, mouse, plasma, iv, 10 mg/kg, read-out: t1/2 (converted)
  half-life: 34.2 min
[3]; [10]
  AUC(0-inf): 2.6 µg·h/mL
  AUC(0-t): 2.6 ± 0.374 µg·h/mL
  Cmax: 2.95 ± 1.24 µg/mL
  Tmax: 10 min
[3]; female, FVB/NJ, mouse, plasma, po, 50 mg/kg, plasma, po, 50 mg/kg, read-out: F (oral bioavailability)
  bioavailability: ~50%
[3]; female, FVB/NJ, mouse, plasma, po, 50 mg/kg, read-out: t1/2 (converted)
  half-life: 58.2 min
[3]; female, FVB/NJ, mouse, brain, ip, 30 mg/kg, AUC from 0.25 to 4 h
  AUC(0-t): 0.74 ± 0.032 µg·h/mL
[3]; female, FVB/NJ, mouse, brain, iv, 10 mg/kg, AUC from 0.25 to 4 h
  AUC(0-t): 0.738 ± 0.089 µg·h/mL
[3]; female, FVB/NJ, mouse, brain, po, 50 mg/kg, AUC from 0.5 to 4 h
  AUC(0-t): 0.416 ± 0.033 µg·h/mL
[3]; plasma, ip, 30 mg/kg
  CI (clearance): 9.259 L/h/kg
  F: 128%
  V: 7.875 L/kg
[3]; plasma, iv, 10 mg/kg
  F: 100%
  V: 7.669 L/kg
[3]; plasma, po, 50 mg/kg
  V: 13.012 L/kg
[4]; 10 mg/kg
  fear conditioning: context memory: significantly improved
[4]; 10 mg/kg po 3 times per week, 10 weeks
  rescue of working memory deficit (Y-maze): > 50%
[4]; 10 or 30 mg/kg
  fear conditioning: cued memory to the tone: no significant differences
  fear conditioning: learning of the tone response (freezing, tone 4): completely absent
[4]; 10 or 30 mg/kg, about 4 months
  Aβ immunoreactivity in hippocampus and cortex: trend was seen towards lower levels
  Aβ levels by ELISA in hippocampus and cortex: non-significant trends towards lower Aβ levels
  increase in expression of PHF1: almost completely absent
  level of Iba1: did not significantly change
  levels of calbindin, synaptophysin, MAP-2 and NeuN: significantly higher levels of these neuronal markers
[4]; 10 or 30 mg/kg, listed as 381
  fear conditioning: cued memory to the tone: No freezing difference
  fear conditioning: learning of the tone response (freezing, tone 4): significant increase in freezing
[4]; oral
  rescue of contextual memory deficit: greater than 50%
[4]; 10 weeks
  Y-maze working memory (spontaneous alternations): not significantly impaired compared with littermate non-transgenic controls
[4]; 10 weeks, listed as 381
  Y-maze working memory (spontaneous alternations): improved
[4]; two dose levels, 4-month-period of treatment
  neurodegeneration: marked amelioration of neurodegeneration
